Here are results for nine compounds from ChEMBL document CHEMBL1201862, “PubChem BioAssay data set” (2004).

The nature of assay [1]: Counterscreen for […] of the human trace amine associated receptor 1 (TAAR1): Fluorescence-based cell-based high throughput dose response assay to identify nonselective Ga16 agonists. It counts as functional.
Assay [2] is described as follows: Counterscreen for antagonists of the human trace amine associated receptor 1 (hTAAR1): Fluorescence-based cell-based high throughput dose response assay to identify nonselective Ga16 antagonists. It counts as functional. In general terms: A counterscreen serves to expose hits that act by an unwanted route or on another target.
A further assay addresses Major prion protein (Homo sapiens, UniProt P04156). It counts as functional, cell-based.
The nature of assay [3]: cells.
Assay [4] deals with T1, Sentrin-specific protease 8 (Homo sapiens, UniProt Q96LD8).
T1 sequence (Q96LD8 whole entry): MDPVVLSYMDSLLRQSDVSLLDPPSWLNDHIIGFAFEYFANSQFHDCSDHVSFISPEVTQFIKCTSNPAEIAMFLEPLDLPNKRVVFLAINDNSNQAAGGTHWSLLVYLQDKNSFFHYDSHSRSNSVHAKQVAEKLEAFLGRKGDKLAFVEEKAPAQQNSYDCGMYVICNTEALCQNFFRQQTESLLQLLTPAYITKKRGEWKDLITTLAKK
It counts as functional.

The target of the next assay is T2, Protein RecA (Mycobacterium tuberculosis, UniProt P9WHJ3).
T2 sequence (P9WHJ3 whole entry): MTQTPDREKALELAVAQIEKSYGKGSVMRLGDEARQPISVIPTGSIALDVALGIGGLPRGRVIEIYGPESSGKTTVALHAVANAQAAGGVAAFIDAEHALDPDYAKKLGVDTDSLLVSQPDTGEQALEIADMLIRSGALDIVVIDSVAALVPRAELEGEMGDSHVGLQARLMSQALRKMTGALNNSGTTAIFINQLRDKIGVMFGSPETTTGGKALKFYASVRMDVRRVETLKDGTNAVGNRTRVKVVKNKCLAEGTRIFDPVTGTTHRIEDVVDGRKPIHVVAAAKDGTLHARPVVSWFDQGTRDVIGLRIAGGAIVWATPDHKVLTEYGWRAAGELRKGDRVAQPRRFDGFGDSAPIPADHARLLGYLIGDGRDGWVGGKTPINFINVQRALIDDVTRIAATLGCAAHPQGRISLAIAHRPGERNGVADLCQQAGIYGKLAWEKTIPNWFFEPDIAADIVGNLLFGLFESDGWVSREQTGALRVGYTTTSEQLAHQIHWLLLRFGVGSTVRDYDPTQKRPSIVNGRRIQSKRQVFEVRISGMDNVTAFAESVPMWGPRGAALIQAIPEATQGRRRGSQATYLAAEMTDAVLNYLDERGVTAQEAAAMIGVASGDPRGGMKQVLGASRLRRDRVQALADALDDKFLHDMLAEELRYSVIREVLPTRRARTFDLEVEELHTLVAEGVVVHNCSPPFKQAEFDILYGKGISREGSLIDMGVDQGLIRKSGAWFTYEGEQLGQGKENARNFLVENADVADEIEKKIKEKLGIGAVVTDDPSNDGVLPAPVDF
Briefly: Fluorescence Cell-Free Homogeneous Dose Retest to Identify Inhibitors of RecA-Intein Splicing Activity. [Related pubchem assays (depositor defined):AID2097, AID2223, AID489010, AID492950]. The format is functional.

The target in assay [5] is T3, Replicative DNA helicase DnaB (Mycobacterium tuberculosis, UniProt P9WMR3).
T3 sequence (P9WMR3 whole entry): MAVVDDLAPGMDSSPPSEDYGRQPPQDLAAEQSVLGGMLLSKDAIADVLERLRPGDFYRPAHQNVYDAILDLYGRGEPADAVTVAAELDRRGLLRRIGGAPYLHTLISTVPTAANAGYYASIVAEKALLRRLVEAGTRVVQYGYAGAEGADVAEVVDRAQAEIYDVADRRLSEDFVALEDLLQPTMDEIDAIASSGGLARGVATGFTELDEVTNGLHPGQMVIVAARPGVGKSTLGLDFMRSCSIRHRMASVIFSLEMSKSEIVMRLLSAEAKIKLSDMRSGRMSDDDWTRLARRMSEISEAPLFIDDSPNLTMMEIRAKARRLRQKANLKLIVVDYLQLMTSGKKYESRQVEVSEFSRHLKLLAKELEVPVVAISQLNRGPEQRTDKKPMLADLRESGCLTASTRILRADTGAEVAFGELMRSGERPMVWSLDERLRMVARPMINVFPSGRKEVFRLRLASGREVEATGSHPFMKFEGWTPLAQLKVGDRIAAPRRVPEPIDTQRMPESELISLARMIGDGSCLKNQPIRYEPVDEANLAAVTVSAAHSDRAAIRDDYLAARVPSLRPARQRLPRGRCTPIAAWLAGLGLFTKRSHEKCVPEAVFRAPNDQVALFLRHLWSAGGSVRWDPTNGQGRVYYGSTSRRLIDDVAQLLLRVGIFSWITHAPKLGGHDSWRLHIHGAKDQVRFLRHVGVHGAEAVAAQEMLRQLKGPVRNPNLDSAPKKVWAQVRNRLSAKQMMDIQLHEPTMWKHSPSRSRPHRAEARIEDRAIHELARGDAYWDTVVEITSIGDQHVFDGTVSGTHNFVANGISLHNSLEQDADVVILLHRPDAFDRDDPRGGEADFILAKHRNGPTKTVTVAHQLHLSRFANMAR
Kind of assay: DnaB intein splicing inhibitors, dose response, biochemical, cell-free fluorescence (AID 449749). It counts as functional.

Assay [6] deals with T1, Sentrin-specific protease 8. The format is functional. The source holds these as a separate data set.
For assay [7], the target named is Matrix metalloproteinase-14 (Homo sapiens, UniProt P50281). Briefly: Dose Response confirmation of uHTS hits for a small molecule inhibitors of MT1-MMP activation in a fluorescence assay set 1. The format is functional.
Assay [8] is described as follows: THP-1 cell cytotoxicity, dose response, cytotoxicity control for non-replicating M. tuberculosis project (AID 489025). The format is functional.
Assay [9] is described as follows: cells. The format is functional.
In assay [10] the target is 1-phosphatidylinositol 4,5-bisphosphate phosphodiesterase beta-3 (Homo sapiens, UniProt Q01970). Kind of assay: Fluorescence-based biochemical high throughput dose response assay to identify inhibitors of phospholipase C isozymes (PLC-B3).
Chain of 1-phosphatidylinositol 4,5-bisphosphate phosphodiesterase beta-3 (Q01970 whole entry): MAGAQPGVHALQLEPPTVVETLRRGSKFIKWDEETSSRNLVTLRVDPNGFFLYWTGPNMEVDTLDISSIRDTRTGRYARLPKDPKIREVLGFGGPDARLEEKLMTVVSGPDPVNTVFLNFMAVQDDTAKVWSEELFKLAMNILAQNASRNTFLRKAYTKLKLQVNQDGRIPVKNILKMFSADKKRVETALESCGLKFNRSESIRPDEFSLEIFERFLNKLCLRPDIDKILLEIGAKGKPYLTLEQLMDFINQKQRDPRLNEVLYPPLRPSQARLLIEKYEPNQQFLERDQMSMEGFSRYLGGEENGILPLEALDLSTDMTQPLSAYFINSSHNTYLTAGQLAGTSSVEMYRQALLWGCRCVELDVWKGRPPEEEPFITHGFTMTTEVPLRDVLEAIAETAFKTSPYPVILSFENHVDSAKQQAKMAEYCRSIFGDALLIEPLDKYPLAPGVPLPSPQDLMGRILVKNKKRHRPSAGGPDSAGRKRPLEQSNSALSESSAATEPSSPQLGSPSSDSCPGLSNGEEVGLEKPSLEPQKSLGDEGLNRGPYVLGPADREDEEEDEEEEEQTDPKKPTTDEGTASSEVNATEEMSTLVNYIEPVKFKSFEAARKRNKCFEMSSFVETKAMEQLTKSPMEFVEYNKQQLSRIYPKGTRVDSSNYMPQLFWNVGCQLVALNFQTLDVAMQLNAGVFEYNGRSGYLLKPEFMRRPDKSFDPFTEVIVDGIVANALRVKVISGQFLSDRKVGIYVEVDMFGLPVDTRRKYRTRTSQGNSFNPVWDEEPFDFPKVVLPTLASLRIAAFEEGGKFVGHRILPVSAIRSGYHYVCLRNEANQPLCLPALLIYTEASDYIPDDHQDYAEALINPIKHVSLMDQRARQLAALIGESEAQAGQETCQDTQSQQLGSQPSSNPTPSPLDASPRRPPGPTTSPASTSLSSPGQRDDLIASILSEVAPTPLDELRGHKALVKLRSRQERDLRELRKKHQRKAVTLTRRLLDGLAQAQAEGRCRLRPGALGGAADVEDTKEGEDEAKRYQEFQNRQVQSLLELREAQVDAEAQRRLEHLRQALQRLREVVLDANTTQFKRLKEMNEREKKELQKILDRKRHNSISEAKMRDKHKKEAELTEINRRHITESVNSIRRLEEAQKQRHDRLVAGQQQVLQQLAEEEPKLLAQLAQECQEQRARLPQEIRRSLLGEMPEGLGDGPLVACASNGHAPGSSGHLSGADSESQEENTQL
The target of assay [11] is 1-phosphatidylinositol 4,5-bisphosphate phosphodiesterase gamma-1 (Homo sapiens, UniProt P19174). Kind of assay: Counterscreen for inhibitors of phospholipase C isozymes (PLC-B3): Fluorescence-based biochemical high throughput dose response assay to identify inhibitors of phospholipase C isozymes (PLC-gamma1).
Chain of 1-phosphatidylinositol 4,5-bisphosphate phosphodiesterase gamma-1 (P19174 whole entry): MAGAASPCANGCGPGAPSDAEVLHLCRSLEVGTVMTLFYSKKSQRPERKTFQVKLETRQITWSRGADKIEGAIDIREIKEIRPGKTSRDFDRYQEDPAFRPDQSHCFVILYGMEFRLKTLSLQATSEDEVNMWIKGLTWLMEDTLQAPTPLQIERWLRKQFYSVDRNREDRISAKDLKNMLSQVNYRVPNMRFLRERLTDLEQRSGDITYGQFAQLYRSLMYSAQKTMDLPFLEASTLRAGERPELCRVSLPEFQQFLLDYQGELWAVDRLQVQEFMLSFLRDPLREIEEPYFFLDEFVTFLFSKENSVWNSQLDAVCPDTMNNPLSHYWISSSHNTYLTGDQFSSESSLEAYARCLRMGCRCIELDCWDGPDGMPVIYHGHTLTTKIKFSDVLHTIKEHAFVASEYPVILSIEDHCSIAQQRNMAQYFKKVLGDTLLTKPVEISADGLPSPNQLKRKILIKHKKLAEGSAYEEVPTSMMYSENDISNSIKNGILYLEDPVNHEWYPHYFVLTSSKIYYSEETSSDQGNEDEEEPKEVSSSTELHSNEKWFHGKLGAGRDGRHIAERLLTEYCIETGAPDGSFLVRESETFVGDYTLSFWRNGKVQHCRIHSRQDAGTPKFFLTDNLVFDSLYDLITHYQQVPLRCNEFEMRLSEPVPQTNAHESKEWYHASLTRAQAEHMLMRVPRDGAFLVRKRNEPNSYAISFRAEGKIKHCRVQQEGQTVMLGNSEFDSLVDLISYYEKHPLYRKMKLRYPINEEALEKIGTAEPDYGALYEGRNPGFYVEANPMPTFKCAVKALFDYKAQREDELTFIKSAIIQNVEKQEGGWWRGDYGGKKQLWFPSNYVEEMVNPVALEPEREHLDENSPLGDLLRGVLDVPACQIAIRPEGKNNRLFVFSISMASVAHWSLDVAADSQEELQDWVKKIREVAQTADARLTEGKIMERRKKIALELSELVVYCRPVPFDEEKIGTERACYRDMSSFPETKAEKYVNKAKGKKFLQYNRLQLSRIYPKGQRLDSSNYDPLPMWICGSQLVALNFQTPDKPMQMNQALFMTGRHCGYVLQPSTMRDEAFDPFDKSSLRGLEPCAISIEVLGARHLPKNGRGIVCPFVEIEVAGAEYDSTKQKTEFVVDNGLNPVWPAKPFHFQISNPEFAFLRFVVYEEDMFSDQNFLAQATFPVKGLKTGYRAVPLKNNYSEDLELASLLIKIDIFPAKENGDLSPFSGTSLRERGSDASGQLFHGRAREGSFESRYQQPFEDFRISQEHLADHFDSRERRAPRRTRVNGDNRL
Assay [12] can be described thus: microbe, parasite or virus in culture. It counts as functional. The conditions noted are these: Mycobacterium tuberculosis.
Assay [13] addresses Tyrosyl-DNA phosphodiesterase 2 (Homo sapiens, UniProt O95551). Kind of assay: human TDP2 enzyme inhibitors, dose response, biochemical, epi absorbance, IC50 (AID 743297).
The target in assay [14] is NAD-dependent protein deacylase sirtuin-5, mitochondrial (Homo sapiens, UniProt Q9NXA8). Briefly: SIRT5 deacylase inhibitors, dose response, biochemical, fluorescence imaging, cherry-pick, set 6 (AID 720597).
Chain of NAD-dependent protein deacylase sirtuin-5, mitochondrial (Q9NXA8 whole entry): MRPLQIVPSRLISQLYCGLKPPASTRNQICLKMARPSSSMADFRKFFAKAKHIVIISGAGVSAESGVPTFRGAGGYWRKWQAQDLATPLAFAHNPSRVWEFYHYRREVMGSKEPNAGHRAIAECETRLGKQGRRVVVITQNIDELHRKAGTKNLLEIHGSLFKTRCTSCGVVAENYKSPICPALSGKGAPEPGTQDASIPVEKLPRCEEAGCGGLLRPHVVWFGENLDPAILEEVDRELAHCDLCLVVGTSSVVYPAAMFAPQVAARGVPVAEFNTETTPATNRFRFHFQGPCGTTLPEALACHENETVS
Assay [15] in a line: THP-1 cell cytotoxicity, dose response, cytotoxicity control for Vif-APOBEC3G degradation inhibitor project, THP-1 cells (AID 1117359). The format is functional. The settings on record: Human immunodeficiency virus 1, THP-1.
The nature of assay [16]: cytotoxicity in OVCAR8 ovarian cancer cells, dose response, PAX8 project, cell-based, plate reader, dry powder samples (AID 743197). The format is functional. The conditions noted are these: OVCAR-8.
Assay [17] can be described thus: non-specific cell cytotoxicity, dose response, cytotoxicity control for PAX8 inhibitor project, plate reader, dry powder samples (AID 743021). The format is functional, cell-based.
The target of another assay is Paired box protein Pax-8 (Homo sapiens, UniProt Q06710). Kind of assay: inhibitors of PAX8-driven TPO luciferase reporter, dose response, RMG-I cells, cherry-pick (AID 687027).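 Also: luciferase reporter driven by Pax8 target thyroperoxidase promoter measured by SteadyGlo luminescence.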 The format is functional, cell-based.
Chain of Paired box protein Pax-8 (Q06710 whole entry): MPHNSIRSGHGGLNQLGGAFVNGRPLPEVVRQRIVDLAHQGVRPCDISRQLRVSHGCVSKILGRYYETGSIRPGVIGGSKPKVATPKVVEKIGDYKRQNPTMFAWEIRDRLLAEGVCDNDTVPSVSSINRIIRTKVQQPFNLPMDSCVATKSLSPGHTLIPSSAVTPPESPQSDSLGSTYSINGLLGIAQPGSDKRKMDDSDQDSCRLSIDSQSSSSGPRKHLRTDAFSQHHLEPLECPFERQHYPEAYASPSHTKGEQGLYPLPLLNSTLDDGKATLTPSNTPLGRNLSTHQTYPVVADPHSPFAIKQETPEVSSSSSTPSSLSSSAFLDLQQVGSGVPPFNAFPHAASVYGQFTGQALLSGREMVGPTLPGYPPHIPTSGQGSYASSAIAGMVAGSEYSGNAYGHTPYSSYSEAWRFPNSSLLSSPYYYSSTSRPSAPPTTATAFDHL
Assay [18] in a line: IGROV1 ovarian cancer cell cytotoxicity, dose response, PAX8 inhibitor project, plate reader, dry powder samples (AID 743043). It counts as functional, cell-based. The settings on record: IGROV-1.
The nature of assay [19]: A2780 ovarian cancer cell cytotoxicity, dose response, cytotoxicity control, plate reader, dry powder samples (AID 743046). It counts as functional, cell-based.
The nature of assay [20]: NIH:OVCAR-3 ovarian cancer cell cytotoxicity, dose response, PAX8 inhibitor project, plate reader, dry powder samples (AID 743044). It counts as functional, cell-based.
Assay [21] can be described thus: HepG2 cell cytotoxicity, dose response, cytotoxicity control, ATP luminescence, cherry-pick, set 6 (AID 1053125). The format is functional, cell-based.

Active and inactive are the calls of the source.

Chain of Tyrosyl-DNA phosphodiesterase 2 (O95551 whole entry): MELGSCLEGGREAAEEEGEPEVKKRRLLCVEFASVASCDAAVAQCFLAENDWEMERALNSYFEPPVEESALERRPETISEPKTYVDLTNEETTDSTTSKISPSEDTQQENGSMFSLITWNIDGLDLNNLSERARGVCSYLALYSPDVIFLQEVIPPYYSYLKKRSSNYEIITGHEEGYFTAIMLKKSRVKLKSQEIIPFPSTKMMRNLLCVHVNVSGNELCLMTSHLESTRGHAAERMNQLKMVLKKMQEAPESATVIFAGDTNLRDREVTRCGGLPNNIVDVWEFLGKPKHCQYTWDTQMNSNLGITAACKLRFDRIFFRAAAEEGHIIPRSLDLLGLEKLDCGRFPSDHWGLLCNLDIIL

Regarding `CC(=O)c1ccc(NC(=O)c2ccc(COc3ccccc3[N+](=O)[O-])o2)cc1`, in assay [1], the EC50 was > 29.9 µM (inactive). For the same compound, the IC50 in assay [2] was > 29.9 µM (inactive).
In the case of `c1ccc2sc(Nc3nc4cc5c(cc4s3)OCO5)nc2c1`, the IC50 is 8.57 µM (active) at Major prion protein and > 138 µM (inactive) in the assay “cells [3]”.
Consider `Cc1cc(C)nc(N2N=C(C(C)(C)C)CC2=O)n1`, for which the IC50 is 12.1 µM (active) in assay [4] and 8.2 µM (active) in assay [6]. Moreover, the EC50 on Protein RecA was 10.9 µM (active). For the same compound, the AC50 in assay [5] was 14.9 µM (active).
On to `CC(=O)Oc1ccc2oc(/C=C/N(C)C)c([N+](=O)[O-])c2c1`, for which, in assay [7], the IC50 was 56.8 µM (inactive).
`Cc1c([N+](=O)[O-])cnc(Sc2ccccc2)c1[N+](=O)[O-]`: the CC50 in assay [8] is 26.1 µM (active); in [12], 30.3 µM (active). The EC50 at Protein RecA was 0.0479 µM (active). Further, the IC50 was 7.94 µM (active) in the assay “cells [9]”, > 122 µM (inactive) in assay [10] and > 122 µM (inactive) in assay [11]. Further, in [5], the AC50 was 0.181 µM (active).
As for `CCOc1ccc(NC2=CC(=O)C(=O)c3ccccc32)cc1`, in assay [13], the IC50 was > 128 µM (inactive).
On to `Cc1noc(C)c1S(=O)(=O)Nc1ccc2c(c1)C(=O)N([C@@H](C)CO)C[C@H](C)[C@@H](CN(C)Cc1ccc(C(F)(F)F)cc1)OCCCC[C@H](C)O2`, for which, in [14], the AC50 is 12.2 µM (active). Also, the CC50 in assay [15] was 16.7 µM (active).
As for `C[C@@H]1CN([C@H](C)CO)C(=O)c2cc(NC(=O)Nc3ccc(C(F)(F)F)cc3)ccc2O[C@@H](C)CCCCO[C@@H]1CN(C)Cc1ccccc1`, the AC50 in [16] was 21.5 µM (active); in [17] it was 68 µM (active); at Paired box protein Pax-8, 6.4 µM (active); in assay [18], 40.2 µM (active); in [19], 22.3 µM (active); in [20], 23 µM (active).
`Cc1c(C(=O)NCc2ccc3c(c2)OCCO3)sc(=O)n1Cc1ccccc1F`: the AC50 in [21] is > 52 µM (inactive).

What is called EC50 is the concentration that produces a half-maximal response. By IC50 is commonly meant the concentration needed to halve the response being measured. For orientation: AC50 means the midpoint of the concentration-response curve, whichever way the signal moves.
